Results published in patent US11096985B2, “Antimicrobial peptides, their variants and uses” (priority 2015, dated 2021).
Where a SMILES comes first, the peptide text is derived from it. [ ]: non-standard residue; d: D form.

Experiments:
[1] = test system: clinical strains of Pseudomonas aeruginosa; test: MIC, clinical strains of P. aeruginosa; format: cell-based; design: unit: μg/ml; conditions: microdilution, Muller Hinton broth-cation adjusted, 0.02% BSA, 0.2% acetic acid
Outline: (§1)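 MIC = lowest peptide concentration showing no visual growth after 20–24 h at 37° C. Range 0.125–128 μg/ml; bacteria at 5.0×10^5 cfu/ml in MH broth, polypropylene microdilution format; yeasts in potato dextrose broth.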

[2] = test system: clinical strains of Proteus mirabilis; test: MIC, clinical strains of Proteus mirabilis; format: cell-based; design: unit: µg/mL; conditions: microdilution, Muller Hinton broth-cation adjusted, 0.02% BSA, 0.2% acetic acid
Outline: as §1

[3] = test system: clinical strains of C. glabrata; test: MIC, clinical yeast strains, C. glabrata; format: cell-based, Candida glabrata; design: unit: μg/ml
Outline: as §1

[4] = test system: clinical strains of Candida albicans; test: MIC, clinical yeast strains, Candida albicans; format: cell-based; design: unit: μg/ml
Outline: as §1

[5] = test system: clinical strains of Staphylococcus aureus; test: MIC, clinical strains of S. aureus; format: cell-based; design: unit: μg/ml; conditions: microdilution, Muller Hinton broth-cation adjusted, 0.02% BSA, 0.2% acetic acid
Outline: as §1

[6] = test system: clinical strains of Escherichia coli; test: MIC, clinical strains of E. coli; format: cell-based; design: unit: μg/ml; conditions: microdilution, Muller Hinton broth-cation adjusted, 0.02% BSA, 0.2% acetic acid
Outline: as §1

[7] = test system: clinical strains of Enterobacter cloacae; test: MIC, clinical strains of Enterobacter cloacae; format: cell-based; design: unit: μg/ml; conditions: microdilution, Muller Hinton broth-cation adjusted, 0.02% BSA, 0.2% acetic acid
Outline: as §1

[8] = test system: clinical strains of C. parapsilosis; test: MIC, clinical yeast strains, C. parapsilosis; format: cell-based, Candida parapsilosis; design: unit: μg/ml
Outline: as §1

[9] = test system: clinical strains of Serratia marcescens; test: MIC, clinical strains of Serratia marcescens; format: cell-based; design: unit: µg/mL; conditions: microdilution, Muller Hinton broth-cation adjusted, 0.02% BSA, 0.2% acetic acid
Outline: as §1

[10] = test system: clinical strains of Acinetobacter baumannii; test: MIC, clinical strains of Acinetobacter baumannii; format: cell-based; conditions: microdilution, Muller Hinton broth-cation adjusted, 0.02% BSA, 0.2% acetic acid
Protocol: (§2) Minimum inhibition concentrations (MICs) were determined against Escherichia coli (ATCC 25922), Staphylococcus aureus (ATCC 25923), Klebsiella pneumoniae (ATCC 10031) and Pseudomonas aeruginosa (ATCC 27853). Also clinical strains of E. coli, K. pneumoniae, E. cloacae, P. aeruginosa, Serratia marcescens, Proteus mirabilis, S. pneumoniae, Acinetobacter baumannii, A. johnsonii and S. aureus were used for MICs assays. Additionally, clinical strains of yeast including Candida albicans, C. glabrata, C. parapsilosis and C. quillermondiae were used. The susceptibility of these microorganisms to Chain peptides were determined using micro broth dilution assay. Colonies of the respective microorganism from Muller Hinton (MH) agar plates incubated overnight were suspended in MH broth media and final concentration of microorganism was adjusted to 5.0×10^5 cfu/ml. An aliquot of 10 μl of each Chain peptide, or gentamicin, tetracycline as reference antibiotics were added in differing concentrations along with 90 μl of bacterial suspension to 96 well polypropylene plates and incubated at 37° C. for 20 to 24 hours. Concentrations of Chain peptides and reference antibiotics ranged from 0.125 to 128 μg/ml and the MICs were recorded as the lowest concentration with no visual growth of bacteria. Similarly, antifungal MICs were tested in Potato dextrose broth.
(§3) Clinical strains of yeasts including Candida albicans, C. glabrata, C. parapsilosis and C. quillermondiae were also tested with the 12 Chain peptides. The minimum inhibitory concentration (MICs) varied between these peptides and are presented in Tables 4a, 4b, 4c and 5a, 5b, 5c. Peptides Chain 105, 201 and 308 are broad spectrum antimicrobials with MICs between 0.5-32 μg/ml against all the bacteria and yeasts tested, except Serratia marcescens and Proteus mirabilis, against which the MICs were between 64-128 μg/ml. Peptide Chain 306 has narrow spectrum activity against E.coli at 1 μg/ml and for the rest of the bacterial strains at >32 μg/ml (FIG. 10).

[11] = test system: clinical strains of Acinetobacter johnsonii; format: cell-based; conditions: Acinetobacter johnsonii clinical strain 1; microdilution, Muller Hinton broth-cation adjusted, 0.02% BSA, 0.2% acetic acid
Protocol: as §2, §3

[12] = test system: clinical strains of Klebsiella pneumoniae; test: MIC, clinical strains of K. pneumoniae; format: cell-based; design: unit: μg/ml; conditions: microdilution, Muller Hinton broth-cation adjusted, 0.02% BSA, 0.2% acetic acid
Outline: as §1

[13] = test system: clinical strains of C. quillermondiae; test: MIC, clinical yeast strains, C. quillermondiae; format: cell-based; conditions: C. quillermondiae clinical yeast strain 1
Outline: as §1

[14] = test system: clinical strains of Streptococcus pneumoniae; test: MIC, clinical strains of Streptococcus pneumoniae; format: cell-based; design: unit: µg/mL; conditions: microdilution, Muller Hinton broth-cation adjusted, 0.02% BSA, 0.2% acetic acid
Outline: as §1

For CC(C)C[C@@H](NC(=O)[C@H](N)CCCNC(=N)N)C(=O)N[C@H](CCCCN)C(=O)N[C@H](CCCNC(=N)N)C(=O)N[C@H](Cc1c[nH]c2ccccc12)C(=O)N[C@H](CCCNC(=N)N)C(=O)N[C@H](CC(C)C)C(=O)N[C@H](Cc1ccccc1)C(=O)N[C@H](CCCNC(=N)N)C(=O)N[C@H](CCCCN)C(=O)N[C@H](CCCNC(=N)N)C(=O)O [Chain306D] (H-[dR][dL][dK][dR][dW][dR][dL][dF][dR][dK][dR]-OH), the Minimum inhibitory concentration ([1]; Pseudomonas aeruginosa clinical strain 1) was 128, the Minimum inhibitory concentration ([1]; Pseudomonas aeruginosa clinical strain 2) was >128 and the Minimum inhibitory concentration ([1]; Pseudomonas aeruginosa clinical strain 3) was 128. For the same compound, the Minimum inhibitory concentration ([1]; Pseudomonas aeruginosa clinical strain 4) was >128, the Minimum inhibitory concentration ([1]; Pseudomonas aeruginosa clinical strain 5) was 128 and the Minimum inhibitory concentration ([2]; Proteus mirabilis clinical strain 1) was >128. For the same compound, the Minimum inhibitory concentration ([2]; Proteus mirabilis clinical strain 2) was >128, the Minimum inhibitory concentration ([2]; Proteus mirabilis clinical strain 3) was >128 and the Minimum inhibitory concentration ([2]; Proteus mirabilis clinical strain 4) was >128. For the same compound, the Minimum inhibitory concentration ([2]; Proteus mirabilis clinical strain 5) was >128, the Minimum inhibitory concentration ([3]; C. glabrata clinical yeast strain 1) was 8 and the Minimum inhibitory concentration ([3]; C. glabrata clinical yeast strain 2) was 8. The Minimum inhibitory concentration ([3]; C. glabrata clinical yeast strain 3) was 16, the Minimum inhibitory concentration ([3]; C. glabrata clinical yeast strain 4) was 32 and the Minimum inhibitory concentration ([4]; Candida albicans clinical yeast strain 1) was 16. It also gave a Minimum inhibitory concentration ([4]; Candida albicans clinical yeast strain 2) of 8, a Minimum inhibitory concentration ([4]; Candida albicans clinical yeast strain 3) of 8 and a Minimum inhibitory concentration ([4]; Candida albicans clinical yeast strain 4) of 16. The Minimum inhibitory concentration ([4]; Candida albicans clinical yeast strain 5) was 16, the Minimum inhibitory concentration ([5]; Staphylococcus aureus clinical strain 1) was 16 and the Minimum inhibitory concentration ([5]; Staphylococcus aureus clinical strain 2) was 32. For the same compound, the Minimum inhibitory concentration ([5]; Staphylococcus aureus clinical strain 3) was 32, the Minimum inhibitory concentration ([5]; Staphylococcus aureus clinical strain 4) was 16 and the Minimum inhibitory concentration ([5]; Staphylococcus aureus clinical strain 5) was 8. For the same compound, the Minimum inhibitory concentration ([6]; Escherichia coli clinical strain 1) was 1, the Minimum inhibitory concentration ([6]; Escherichia coli clinical strain 2) was 2 and the Minimum inhibitory concentration ([6]; Escherichia coli clinical strain 3) was 2. The Minimum inhibitory concentration ([6]; Escherichia coli clinical strain 4) was 2, the Minimum inhibitory concentration ([6]; Escherichia coli clinical strain 5) was 2 and the Minimum inhibitory concentration ([7]; Enterobacter cloacae clinical strain 1) was 64. For the same compound, the Minimum inhibitory concentration ([7]; Enterobacter cloacae clinical strain 2) was 64, the Minimum inhibitory concentration ([7]; Enterobacter cloacae clinical strain 3) was 32 and the Minimum inhibitory concentration ([7]; Enterobacter cloacae clinical strain 4) was 16. It also gave a Minimum inhibitory concentration ([7]; Enterobacter cloacae clinical strain 5) of 16, a Minimum inhibitory concentration ([8]; C. parapsilosis clinical yeast strain 1) of 8 and a Minimum inhibitory concentration ([8]; C. parapsilosis clinical yeast strain 2) of 16. The Minimum inhibitory concentration ([8]; C. parapsilosis clinical yeast strain 3) was 16, the Minimum inhibitory concentration ([8]; C. parapsilosis clinical yeast strain 4) was 4 and the Minimum inhibitory concentration ([9]; Serratia marcescens clinical strain 1) was >128. The Minimum inhibitory concentration ([9]; Serratia marcescens clinical strain 2) was >128, the Minimum inhibitory concentration ([9]; Serratia marcescens clinical strain 3) was >128 and the Minimum inhibitory concentration ([9]; Serratia marcescens clinical strain 4) was >128. The Minimum inhibitory concentration ([9]; Serratia marcescens clinical strain 5) was >128, the Minimum inhibitory concentration ([10]; Acinetobacter baumannii clinical strain 1) was 16 and the Minimum inhibitory concentration ([10]; Acinetobacter baumannii clinical strain 2) was 32. It also gave a Minimum inhibitory concentration ([10]; Acinetobacter baumannii clinical strain 3) of 16, a Minimum inhibitory concentration ([10]; Acinetobacter baumannii clinical strain 4) of 16 and a Minimum inhibitory concentration ([10]; Acinetobacter baumannii clinical strain 5) of 8. The Minimum inhibitory concentration [11] was 16, the Minimum inhibitory concentration ([12]; Klebsiella pneumoniae clinical strain 1) was 128 and the Minimum inhibitory concentration ([12]; Klebsiella pneumoniae clinical strain 2) was >128. The Minimum inhibitory concentration ([12]; Klebsiella pneumoniae clinical strain 3) was >128, the Minimum inhibitory concentration ([12]; Klebsiella pneumoniae clinical strain 4) was 64 and the Minimum inhibitory concentration ([12]; Klebsiella pneumoniae clinical strain 5) was 64. It also gave a Minimum inhibitory concentration [13] of 4, a Minimum inhibitory concentration ([14]; Streptococcus pneumoniae clinical strain 1) of 64 and a Minimum inhibitory concentration ([14]; Streptococcus pneumoniae clinical strain 2) of 64. For the same compound, the Minimum inhibitory concentration ([14]; Streptococcus pneumoniae clinical strain 3) was 64, the Minimum inhibitory concentration ([14]; Streptococcus pneumoniae clinical strain 4) was 128 and the Minimum inhibitory concentration ([14]; Streptococcus pneumoniae clinical strain 5) was 64.
